US10669268B2, “Bicyclic derivatives” (Hoffmann-La Roche Inc., priority 2012, dated 2020)
pIC50: −log10 of the molar value.

Target: ATX (human His-tagged) (Homo sapiens (Human), UniProt Q13822)
Experiment: Human ATX enzyme inhibition assay (fluorescence quenching, MR121 substrate)
Type: biochemical
Conditions: 30 nM ATX, 1 μM MR121 substrate, 30° C., pH 8.0
Outline: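 Tris-HCl buffer at pH 8.0 contained 140 mM NaCl, 5 mM KCl, 1 mM each CaCl2 and MgCl2, and 0.01% Triton X-100. The MR121 substrate (1 μM final) was incubated with enzyme for 15 min at 30 °C, and activity was read by fluorescence quenching.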

## O=C(CCc1ccc(OC(F)(F)F)cc1)N1C[C@@H]2CN(C(=O)c3ccc4[nH]c(=O)oc4c3)C[C@H]2C1 [Example 2.03, 6-[(3aR,6aR)-2-[3-[4-(trifluoromethoxy)phenyl]propanoyl]-1,3,3a,4,6,6a-hexahydropyrrolo[3,4-c]pyrrole-5-carbonyl]-3H-1,3-benzoxazol-2-one]
  pIC50: 8.30

## O=C(OCc1ccc(OC(F)(F)F)cc1)N1C[C@@H]2CN(C(=O)c3ccc4[nH]c(=O)oc4c3)C[C@H]2C1 [Example 2.04, (3aS,6aS)-5-(2-oxo-2,3-dihydro-benzooxazole-6-carbonyl)-hexahydro-pyrrolo[3,4-c]pyrrole-2-carboxylic acid 4-trifluoromethoxy-benzyl ester]
  pIC50: 8.10

## O=C(OCc1cc(Cl)cc(Cl)c1)N1C[C@H]2C[C@H](Oc3ccc4[nH]c(=O)oc4c3)C[C@H]2C1 [Example 3, (3aR,5s,6aS)-3,5-Dichlorobenzyl 5-(2-oxo-2,3-dihydrobenzo[d]oxazol-6-yloxy)hexahydrocyclopenta[c]pyrrole-2(1H)-carboxylate]
  pIC50: 7.44

## O=C(OCc1cc(Cl)cc(Cl)c1)N1C[C@H]2C[C@@H](Oc3ccc4[nH]c(=O)oc4c3)C[C@H]2C1 [Example 3.01, (3aR,5r,6aS)-3,5-Dichlorobenzyl 5-(2-oxo-2,3-dihydrobenzo[d]oxazol-6-yloxy)hexahydrocyclopenta[c]pyrrole-2(1H)-carboxylate]
  pIC50: 5.96

## O=C(OCc1cc(Cl)cc(Cl)c1)N1C[C@@H]2CN(C(=O)c3ccc4[nH]nnc4c3)C[C@H]2C1 [Example 4, (3aS,6aS)-3,5-Dichlorobenzyl 5-(1H-benzo[d][1,2,3]triazole-5-carbonyl)hexahydro-pyrrolo[3,4-c]pyrrole-2(1H)-carboxylate]
  pIC50: 8.10

## O=C(OCc1cc(Cl)cc(Cl)c1)N1C[C@H]2CN(C(=O)c3ccc4[nH]nnc4c3)C[C@@H]2C1 [Example 4.02, (3aR,6aR)-3,5-dichlorobenzyl 5-(1H-benzo[d][1,2,3]triazole-5-carbonyl)hexahydropyrrolo[3,4-c]pyrrole-2(1H)-carboxylate]
  pIC50: 7.96

## CS(=O)(=O)c1cc(Cl)cc(COC(=O)N2C[C@@H]3CN(C(=O)c4ccc5[nH]nnc5c4)C[C@H]3C2)c1 [Example 4.03, (3aS,6aS)-5-(1H-benzotriazole-5-carbonyl)-hexahydro-pyrrolo[3,4-c]pyrrole-2-carboxylic acid 3-chloro-5-methanesulfonyl-benzyl ester]
  pIC50: 7.96

## CS(=O)(=O)c1cc(Cl)cc(COC(=O)N2C[C@@H]3CN(C(=O)c4ccc5[nH]nnc5c4)C[C@@H]3C2)c1 [Example 4.04, (3aS,6aR)-5-(1H-benzotriazole-5-carbonyl)-hexahydro-pyrrolo[3,4-c]pyrrole-2-carboxylic acid 3-chloro-5-methanesulfonyl-benzyl ester]
  pIC50: 7.34

## CS(=O)(=O)c1cc(COC(=O)N2CC[C@@H]3CN(C(=O)c4ccc5[nH]nnc5c4)C[C@@H]3CC2)cc(C(F)(F)F)c1 [Example 4.05, (3aS,8aR)-2-(1H-benzotriazole-5-carbonyl)-octahydro-pyrrolo[3,4-d]azepine-6-carboxylic acid 3-methanesulfonyl-5-trifluoromethyl-benzyl ester]
  pIC50: 7.96

## CS(=O)(=O)c1cc(Cl)cc(COC(=O)N2CC[C@@H]3CN(C(=O)c4ccc5[nH]nnc5c4)C[C@@H]3CC2)c1 [Example 4.06, (3aS,8aR)-2-(1H-benzotriazole-5-carbonyl)-octahydro-pyrrolo[3,4-d]azepine-6-carboxylic acid 3-chloro-5-methanesulfonyl-benzyl ester]
  pIC50: 7.92

## CS(=O)(=O)c1cc(COC(=O)N2C[C@@H]3CN(C(=O)c4ccc5[nH]nnc5c4)C[C@@H]3C2)cc(C(F)(F)F)c1 [Example 4.07, (3aS,6aR)-5-(1H-benzotriazole-5-carbonyl)-hexahydro-pyrrolo[3,4-c]pyrrole-2-carboxylic acid 3-methanesulfonyl-5-trifluoromethyl-benzyl ester]
  pIC50: 7.80

## CS(=O)(=O)c1cc(Cl)cc(COC(=O)N2C[C@@H]3CN(C(=O)c4ccc5[nH]nnc5c4)CC[C@H]3C2)c1 [Example 4.09, (3aS,7aR)-5-(1H-benzotriazole-5-carbonyl)-octahydro-pyrrolo[3,4-c]pyridine-2-carboxylic acid 3-chloro-5-methanesulfonyl-benzyl ester]
  pIC50: 7.31

## O=C(OC1(c2cccc(Cl)c2)CC1)N1C[C@@H]2CN(C(=O)c3ccc4[nH]nnc4c3)C[C@@H]2C1 [Example 4.12, (3aS,6aR)-5-(1H-benzotriazole-5-carbonyl)-hexahydro-pyrrolo[3,4-c]pyrrole-2-carboxylic acid 1-(3-chloro-phenyl)-cyclopropyl ester]
  pIC50: 5.83

## O=C(OCC1C2CCCCC21)N1C[C@@H]2CN(C(=O)c3ccc4[nH]nnc4c3)C[C@@H]2C1 (stereo partly drawn) [Example 4.13, (3aS,6aR)-5-(1H-benzotriazole-5-carbonyl)-hexahydro-pyrrolo[3,4-c]pyrrole-2-carboxylic acid bicyclo[4.1.0]hept-7-ylmethyl ester]
  pIC50: 5.54

## O=C(OCC1C2CC3CC(C2)CC1C3)N1C[C@@H]2CN(C(=O)c3ccc4[nH]nnc4c3)C[C@@H]2C1 (stereo partly drawn) [Example 4.14, (3aS,6aR)-5-(1H-benzotriazole-5-carbonyl)-hexahydro-pyrrolo[3,4-c]pyrrole-2-carboxylic acid adamantan-2-ylmethyl ester]
  pIC50: 5.38

## O=C(OCCC1C2CC3CC(C2)CC1C3)N1C[C@@H]2CN(C(=O)c3ccc4[nH]nnc4c3)C[C@@H]2C1 (stereo partly drawn) [Example 4.16, (3aS,6aR)-5-(1H-benzotriazole-5-carbonyl)-hexahydro-pyrrolo[3,4-c]pyrrole-2-carboxylic acid 2-adamantan-2-yl-ethyl ester]
  pIC50: 6.40

## O=C(OCCC12CC3CC(CC(C3)C1)C2)N1C[C@@H]2CN(C(=O)c3ccc4[nH]nnc4c3)C[C@@H]2C1 [Example 4.17, (3aS,6aR)-5-(1H-benzotriazole-5-carbonyl)-hexahydro-pyrrolo[3,4-c]pyrrole-2-carboxylic acid 2-adamantan-1-yl-ethyl ester]
  pIC50: 6.10

## O=C(OCC12CC3CC(CC(C3)C1)C2)N1C[C@@H]2CN(C(=O)c3ccc4[nH]nnc4c3)C[C@@H]2C1 [Example 4.18, (3aS,6aR)-5-(1H-benzotriazole-5-carbonyl)-hexahydro-pyrrolo[3,4-c]pyrrole-2-carboxylic acid adamantan-1-ylmethyl ester]
  pIC50: 5.25

## O=C(OCC1CCCCC1)N1C[C@@H]2CN(C(=O)c3ccc4[nH]nnc4c3)C[C@@H]2C1 [Example 4.19, (3aS,6aR)-5-(1H-benzotriazole-5-carbonyl)-hexahydro-pyrrolo[3,4-c]pyrrole-2-carboxylic acid cyclohexyl methyl ester]
  pIC50: 5.80

## COC(c1cccc(COC(=O)N2C[C@@H]3CN(C(=O)c4ccc5[nH]nnc5c4)C[C@@H]3C2)c1)C(F)(F)F (stereo partly drawn) [Example 4.20, cis-5-(1H-benzotriazole-5-carbonyl)-hexahydro-pyrrolo[3,4-c]pyrrole-2-carboxylic acid 3-(2,2,2-trifluoro-1-methoxy-ethyl)-benzyl ester]
  pIC50: 6.14

## O=C(OCc1cccc(C(O)C(F)(F)F)c1)N1C[C@@H]2CN(C(=O)c3ccc4[nH]nnc4c3)C[C@@H]2C1 (stereo partly drawn) [Example 4.21, cis-5-(1H-benzotriazole-5-carbonyl)-hexahydro-pyrrolo[3,4-c]pyrrole-2-carboxylic acid 3-(2,2,2-trifluoro-1-hydroxy-ethyl)-benzyl ester]
  pIC50: 5.46

## O=C(OCCC1CCCCC1)N1C[C@@H]2CN(C(=O)c3ccc4[nH]nnc4c3)C[C@@H]2C1 [Example 4.22, (3aR,6aS)-2-cyclohexylethyl 5-(1H-benzo[d][1,2,3]triazole-5-carbonyl)hexahydropyrrolo[3,4-c]pyrrole-2(1H)-carboxylate]
  pIC50: 5.86

## O=C(OCc1cc(F)cc(OC(F)(F)F)c1)N1C[C@@H]2CN(C(=O)c3ccc4[nH]nnc4c3)C[C@@H]2C1 [Example 4.23, (3aS,6aR)-5-(1H-benzotriazole-5-carbonyl)-hexahydro-pyrrolo[3,4-c]pyrrole-2-carboxylic acid 3-fluoro-5-trifluoromethoxy-benzyl ester]
  pIC50: 7.77

## N#Cc1cc(Cl)cc(COC(=O)N2C[C@@H]3CN(C(=O)c4ccc5[nH]nnc5c4)C[C@@H]3C2)c1 [Example 4.24, (3aR,6aS)-3-chloro-5-cyanobenzyl 5-(1H-benzo[d][1,2,3]triazole-5-carbonyl)hexahydropyrrolo[3,4-c]pyrrole-2(1H)-carboxylate]
  pIC50: 7.25

## O=C(OCc1cccc(OC(F)(F)F)c1)N1C[C@@H]2CN(C(=O)c3ccc4[nH]nnc4c3)C[C@@H]2C1 [Example 4.25, (3aS,6aR)-5-(1H-benzotriazole-5-carbonyl)-hexahydro-pyrrolo[3,4-c]pyrrole-2-carboxylic acid 3-trifluoromethoxy-benzyl ester]
  pIC50: 6.91

## O=C(OCc1cc(F)cc(C(F)(F)F)c1)N1C[C@@H]2CN(C(=O)c3ccc4[nH]nnc4c3)C[C@@H]2C1 [Example 4.26, (3aS,6aR)-5-(1H-benzotriazole-5-carbonyl)-hexahydro-pyrrolo[3,4-c]pyrrole-2-carboxylic acid 3-fluoro-5-trifluoromethyl-benzyl ester]
  pIC50: 7.29

## O=C(OCc1cc(Cl)cc(OC(F)(F)F)c1)N1C[C@@H]2CN(C(=O)c3ccc4[nH]nnc4c3)C[C@@H]2C1 [Example 4.27, (3aS,6aR)-5-(1H-benzotriazole-5-carbonyl)-hexahydro-pyrrolo[3,4-c]pyrrole-2-carboxylic acid 3-chloro-5-trifluoromethoxy-benzyl ester]
  pIC50: 8.40
